Laboratory results reported in ChEMBL document CHEMBL1159210, “The arenarans, sesquiterpene ethers from the marine sponge Dysidea arenaria” (J Nat Prod, 1995).
Converted amounts (≈) assume the structure as drawn. The source made the active and inactive calls. The calls are words filed in the database; no cut-off is given here.

Legend:
Format in all cases: functional, cell-based
A549 = assay: Cytotoxicity against human A549 cells
HT-29 = assay: Cytotoxicity against human HT-29 cells
HCT-29 = assay: Cytotoxicity against human HCT29 cells
P388 = assay: Cytotoxicity against mouse P388 cells

Row | SMILES | IC50 (A549) [µg/mL] | IC50 (HT-29) [µg/mL] | IC50 (HCT-29) [µg/mL] | IC50 (P388) [µg/mL] | Activity (A549) | Activity (HT-29) | Activity (HCT-29) | Activity (P388)
1 | C/C1=C/CO[C@@]2(C)CCCC(C)(C)[C@@H]2CC1 [ARENARAN A] | 9.51 (≈ 42.8 µM) | 9.11 (≈ 41 µM) | 5.28 (≈ 23.7 µM) | 3.17 (≈ 14.3 µM) | – | – | – | –
2 | CC1(C)CCC[C@]2(C)OC[C@H]3O[C@@]3(C)CC[C@@H]12 | – | – | – | – | inactive | inactive | inactive | inactive
